Experimental data taken from patent US10208012B2, “Compounds for treating inflammatory and hyperproliferative diseases” (Board of Regents, The University of Texas System, priority 2013, dated 2019).
Like-named read-outs stand apart in the source and are kept apart here.

Key:
[1] = test system: mantle cell lymphoma cell lines (Mino and Z-138); test: Thymidine incorporation proliferation assay in mantle cell lymphoma cell lines; assay type: cell-based
Experimental: FIG. 1. Effect of Tumeric Derivatives in MCL cells. Six TMX analogs were screened in two mantle cell lymphoma cell lines (Mino and Z-138). These assays were performed by treating cells with increasing doses of TMX (0-25 μM) and analyzed by thymidine incorporation (proliferation assay).
FIG. 2. Effect of Turmerax Compounds in MCLs. 10 additional TMX analogs derived from compound #6 (from FIG. 1) were screened in two mantle cell lymphoma cell lines (Mino and Z-138). These assays were performed by treating cells with increasing doses of TMX (0-25 μM) and analyzed by thymidine incorporation (proliferation assay).
FIG. 3. Effect of Turmerax Compounds in MCLs. Four compounds from FIG. 2 were selected to analyze at concentrations below 1 μM for cell growth inhibition in vitro.
Malignant lymphoma continues to represent a major health issue in the US and worldwide. Non-Hodgkin lymphomas (NHL) are a common, heterogeneous group of primarily (˜85%) B lymphoid cell neoplasms (NHL-B) arising in the B cell lineage of the human immune (lymphoid) system. NHL-Bs are the fifth most common cancer in the USA (˜65,000 new cases/25,000 deaths expected in 2010). Therefore, there is a great need for novel treatment strategies for this deadly cancer, particularly for relapsed/refractory lymphomas. Relapsed/refractory (r/rDLBCL) DLBCL is one of the most difficult scientific challenges and severe unmet therapeutic needs in clinical oncology today. This is due largely to very drug resistant tumor cells with very poor responses (<20% PR/CR) to current “salvage” therapies. Key pathways (NF-kB, AKT, STAT3), controlling cell growth/survival and chemoresistance in DLBCL have been discovered. Since natural compounds such as turmeric can target multiple pathways with low cellular toxicity, novel compounds with higher potency for cancer cells were sought. Initially, 6 novel turmeric analogues were designed and synthesized using cyclic thioketone and different substituted aromatic aldehydes. […] These compounds were named turmerax (TMX) (1-10), and tested them in the two resistant mantle cell lymphoma cell lines (Mino and Z-138). […] Turmerax compounds 1, 3, 5 and 9 were further analyzed at concentrations below 1 μM for cell growth inhibition in vitro. […] Next, the toxicity of these Turmerax compounds (1, 3, 5 and 9) was evaluated in normal human peripheral blood mononuclear cells (PBMC). […] The effectiveness of Turmerax compounds 1 and 5 in four MCL cell lines were examined, four LBCL cell lines (both ABC and GCB-type) and one follicular lymphoma cell line (CJ) in comparison to the wild type (natural) curcumin compound, to which these compounds bear some structural relatedness. The IC50 for Turmerax cmpds.

[2] = test system: normal human peripheral blood mononuclear cells (PBMC); test: Cytotoxicity in normal PBMC by thymidine incorporation; assay type: cell-based; conditions: minimal toxicity stated for drug concentration below 600 nM
From the text: FIG. 4. Effect of Turmerax compounds in normal peripheral blood mononuclear cells (PBMC). Turmeric analogues (1, 3, 5, and 9) were evaluate for cytoxicity in normal human peripheral blood mononuclear cells (PBMC) by thymidine incorporation assays.
Malignant lymphoma continues to represent a major health issue in the US and worldwide. Non-Hodgkin lymphomas (NHL) are a common, heterogeneous group of primarily (˜85%) B lymphoid cell neoplasms (NHL-B) arising in the B cell lineage of the human immune (lymphoid) system. NHL-Bs are the fifth most common cancer in the USA (˜65,000 new cases/25,000 deaths expected in 2010). Therefore, there is a great need for novel treatment strategies for this deadly cancer, particularly for relapsed/refractory lymphomas. Relapsed/refractory (r/rDLBCL) DLBCL is one of the most difficult scientific challenges and severe unmet therapeutic needs in clinical oncology today. This is due largely to very drug resistant tumor cells with very poor responses (<20% PR/CR) to current “salvage” therapies. Key pathways (NF-kB, AKT, STAT3), controlling cell growth/survival and chemoresistance in DLBCL have been discovered. Since natural compounds such as turmeric can target multiple pathways with low cellular toxicity, novel compounds with higher potency for cancer cells were sought. Initially, 6 novel turmeric analogues were designed and synthesized using cyclic thioketone and different substituted aromatic aldehydes. […] These compounds were named turmerax (TMX) (1-10), and tested them in the two resistant mantle cell lymphoma cell lines (Mino and Z-138). […] Turmerax compounds 1, 3, 5 and 9 were further analyzed at concentrations below 1 μM for cell growth inhibition in vitro. […] Next, the toxicity of these Turmerax compounds (1, 3, 5 and 9) was evaluated in normal human peripheral blood mononuclear cells (PBMC). […]

Bio-availability in vivo = test: Bio-availability in vivo
From the text: (§1) These formulations may be used in further clinical trials.

McA DLBCL cells = test: Sensitivity of doxorubicin-sensitive DLBCL cells; assay type: cell-based
Experimental: (§2) FIG. 7. TMX-1 Targets NF-kB and Key Signaling Pathways in DLBCL to Overcome Chemoresistance. Top left, DLBCL cells (MS) were transfect with the 6×-NF-kB-luciferase expression vector for 24 hrs. Transfected cells were treated with PBS (control) or Lipo-TMX-1 (100 nM) for 4 hrs. Cell lysates were used to analyzed for luciferase activity that was normalized with b-gal activity. Top right, TMX-1 inhibited NIK and pAKT in NHL-B cells. MS cells were treated with increasing doses of Lipo-TMX-1 (0-500 nM) for 24 hrs. NIK and pAKT protein expressions were determined by Western blotting. Bottom, Doxorubicin resistant cells are sensitive to TMX-1. MS cells are resistant to Dox, but are sensitive to TMX-1. McA DLBCL cells are sensitive to both doxorubicin and TMX-1.

pH2AX = test: DNA damage marker in LY-10 cells; assay type: cell-based
Experimental: (§3) FIGS. 12A-C. TMX-1 induces apoptosis in lymphoma cells. (FIG. 12A) A representative lymphoma cell line (LY10) was treated with TMX-1 in a dose-dependent manner for 24 hrs. Apoptosis was determined by Annexin V assays. (FIG. 12B) TMX-1 activates phospho-H2AX (DNA damage marker) and induces bcl-2 cleaving in lymphoma cells. (FIG. 12C) A representative DLBCL cell line (MS) was transfected with a NF-kB-luciferase reporter for 24 hrs. Cells were treated with TMX-1 as indicated.
(§4) To determine whether TMX-1 can induce apoptosis in lymphoma cells, we treated a diffuse large cell lymphoma (DLBCL) cell line (LY-10) with TMX-1 in a dose-dependent manner for 24 hrs. Control and treated cells were analyzed for apoptosis using Annexin V assays. […] Next, we test whether TMX-1 can induces DNA damage in LY-10 cells. […] The inventors also examined whether TMX-1 can inhibit NF-kB activity in lymphoma cells. For these studies, a DLBCL cell line (MS) was transfected with a NF-kB luciferase reporter for 24 hrs, at which time cells were treated with TMX-1 in a dose- and time-dependent manner. […] There are many NF-kB inhibitors commercially available that have been tested in many cancer systems, but none has ever reached the clinic to cancer treatment. The reason for this is typically because these agents usually target upstream of NF-kB signaling pathways, leading to many unwanted side effects.

bcl-2 = bcl-2 cleaving in LY-10 cells; assay type: cell-based
Experimental: as §3, §4

[3] = test system: human DLBCL cell lines (Dox-sensitive and Dox-resistant); test: 72-hr proliferation assays in doxorubicin-sensitive and -resistant DLBCL cell lines; assay type: cell-based
Experimental: FIGS. 13A-B. TMX-1 inhibits DLBCL cell proliferation. (FIG. 13A) 24 representative DLBCL cell lines were treated with TMX-1 in dose-dependent manner and analyzed by thymidine incorporation assays for cell growth inhibition. (FIG. 13B) Effect of TMX-1 in doxorubicin highly sensitive and highly resistant DLBCL cell lines (Pham et al., 2011).
DLBCL are currently initially treated fairly successfully with R-CHOP frontline chemotherapy (˜70-80% initial remission rate), but relapsed/refractory DLBCL occurs frequently (˜40% within 2-3 yrs), with very poor salvage therapy options (˜20% PR/CR). A unique repertoire of human DLBCL cell lines were developed (Ford et al., 1990; Pham et al., 2010) that can be classified into two subgroups, doxorubicin (a key component in CHOP)-sensitive and doxorubicin-resistant. These cell lines were screened against TMX-1 in a dose-dependent manner using 72-hr proliferation assays (FIG. 13A).

MS cells = test: Sensitivity of doxorubicin-resistant DLBCL cells; assay type: cell-based
Experimental: as §2

NIK = test: Western blotting of NIK in MS cells; assay type: cell-based; conditions: Lipo-TMX-1 0-500 nM, 24 hrs
Experimental: as §2

[4] = Water solubility, suspended in water for 24 hrs; assay type: physicochemical
From the text: FIG. 8. Water Solubility of Lipo-Turmerax-1 Compound. Liposomal TMX-1 and TMX-1 compounds were suspended in water for 24 hrs.
as §1

LY10 cells = test: Annexin V apoptosis assay; assay type: cell-based; conditions: 500 nM drug concentration, 24 hrs
Experimental: as §3, §4

[5] = test system: melanoma, gastric, pancreatic, and glioma cancer cell lines; test: MTT cell growth inhibition in NF-kB-associated solid tumor cancer cell lines; assay type: cell-based
From the text: FIG. 11. Effect of TMX-1 in NF-kB-Associated Cancers. Representative cancer cell lines for melanoma, gastric, pancreatic, and glioma were used to analyzed for cell growth inhibition activity of TMX-1 using MTT assays.
as §1

DLBCL cell line (TJ) = test: Combination cell proliferation assays in DLBCL cell line (TJ); assay type: cell-based; conditions: TJ cells
Experimental: FIGS. 14A-B. A representative DLBCL cell line (TJ) was treated with TMX-1 in a dose-dependent manner alone or in combination with Ibrutinib (IB) and carfilzomib (CFZ) and cell proliferation assays were analyzed.
Recent molecularly targeted therapy, as opposed to classic chemotherapy, has improved the treatment of lymphoid malignancies. At the forefront of clinical development are ibrutinib, an inhibitor of Bruton's tyrosine kinase (btk) and carfilzomib (CFZ), a second-generation proteasome inhibitor.

pAKT = test: Western blotting of pAKT in MS cells; assay type: cell-based; conditions: Lipo-TMX-1 0-500 nM, 24 hrs
Experimental: as §2

[6] = Mino and Z-138, doses 0-25 μM, thymidine incorporation, read-out: IC50, cell growth inhibition
[7] = further analyzed at concentrations below 1 μM, read-out: IC50, cell growth inhibition

## CCOC(=O)c1ccc(/C=C2\CSC/C(=C\c3ccc(C(=O)OCC)cc3)C2=O)cc1 [Turmerax 6, 3,5-bis[(4-ethoxycarbonylphenyl)methylene]-tetrahydrothiopyran-4-one]
[1]; [6]
  IC50: 3 to 10 µM

## N#Cc1ccc(/C=C2\CSC/C(=C\c3ccc(C#N)cc3)C2=O)cc1 [Turmerax 9]
[1]; [6]
  IC50: < 1 µM
[1]; [7]
  IC50: 0.2 to 0.8 µM
[2]
  toxicity to PBMC: some toxicity

## O=C1/C(=C/c2ccc([N+](=O)[O-])c(O)c2)CSC/C1=C\c1ccc([N+](=O)[O-])c(O)c1 [Turmerax 3, 3,5-bis[(3-hydroxy-4-nitrophenyl)methylene]-tetrahydrothiopyran-4-one]
[1]; read-out: IC50, cell growth inhibition, Mino and Z-138, doses 0-25 μM, thymidine incorporation
  IC50: < 1 µM
[1]; read-out: IC50, cell growth inhibition, further analyzed at concentrations below 1 μM
  IC50: 0.2 to 0.8 µM
[2]
  toxicity to PBMC: only minimal cell toxicity

## O=C1/C(=C/c2ccc(Cl)c([N+](=O)[O-])c2)CSC/C1=C\c1ccc(Cl)c([N+](=O)[O-])c1 [Turmerax 5, 3,5-bis[(3-nitro-4-chlorophenyl)methylene]-tetrahydrothiopyran-4-one]
[1]; [6]
  IC50: < 1 µM
[1]; [7]
  IC50: 0.1 to 0.2 µM

## COc1ccc(/C=C2\CSC/C(=C\c3ccc(OC)c(C)c3C)C2=O)c(C)c1C [Turmerax 7, 3,5-bis[(3,4-dimethyl-4-methoxyphenyl)methylene]-tetrahydrothiopyran-4-one]
[1]; [6]
  IC50: > 25 µM

## N#Cc1cccc(/C=C2\CSC/C(=C\c3cccc(C#N)c3)C2=O)c1 [Turmerax 1, 3,5-bis[(3-cyanophenyl)methylene]-tetrahydrothiopyran-4-one]
Bio-availability in vivo
  bio-availability: reduced bio-availability
[1]; [6]
  IC50: < 1 µM
[1]; [7]
  IC50: 0.1 to 0.2 µM
McA DLBCL cells
  sensitivity of McA DLBCL cells: sensitive
pH2AX
  pH2AX (DNA damage marker): significantly increased
bcl-2
  bcl-2 anti-apoptotic protein: cleaved
[3]
  activity in Dox-sensitive vs. Dox-resistant DLBCL cell lines: equivalent
MS cells
  sensitivity of MS cells: sensitive
NIK
  NIK protein expression: inhibited
[4]
  precipitation in water: shows precipitation
[2]
  toxicity to PBMC: only minimal cell toxicity
LY10 cells
  apoptosis induced: up to 80%
[5]
  inhibition of solid tumor cancer cells: highly effective
DLBCL cell line (TJ)
  effectiveness of combination with ibrutinib compared with combination with CFZ: more effective than TMX-1 in combination with CFZ
  interaction with ibrutinib in inhibiting lymphoma cell growth: highly synergistic
pAKT
  pAKT protein expression: inhibited

## O=C1/C(=C/c2ccc(Cl)c(Cl)c2)CSC/C1=C\c1ccc(Cl)c(Cl)c1 [Turmerax 2, 3,5-bis[(3,4-dichlorophenyl)methylene]-tetrahydrothiopyran-4-one]
[1]; [6]
  IC50: 3 to 10 µM

## COc1ccc(/C=C2\CSC/C(=C\c3ccc(OC)c(OC)c3OC)C2=O)c(OC)c1OC [Turmerax 4, 3,5-bis[(2,3,4-trimethoxyphenyl)methylene]-tetrahydrothiopyran-4-one]
[1]; [6]
  IC50: > 25 µM

## O=C1/C(=C/c2c(F)ccc(Cl)c2F)CSC/C1=C\c1c(F)ccc(Cl)c1F [Turmerax 8, 3,5-bis[(2,6-difluoro-3-chlorophenyl)methylene]-tetrahydrothiopyran-4-one]
[1]; [6]
  IC50: > 25 µM

## O=C1/C(=C/c2ccc(Br)cc2)CSC/C1=C\c1ccc(Br)cc1 [Turmerax 10, 3,5-bis[(4-bromophenyl)methylene]-tetrahydrothiopyran-4-one]
[1]; [6]
  IC50: 3 to 10 µM

## COc1cccc2c1C(=O)c1c(O)c3c(c(O)c1C2=O)C[C@@](O)(C(=O)CO)C[C@@H]3O[C@H]1C[C@H](N)[C@H](O)[C@H](C)O1 [doxorubicin, reference compound]
McA DLBCL cells
  sensitivity of McA DLBCL cells: sensitive
MS cells
  sensitivity of MS cells: resistant
